Results taken from article PMC11449324, “Functional comparison of human and murine equilibrative nucleobase transporter 1” (PLOS ONE, 2024).
Like-named read-outs stand apart in the source and are kept apart here.

What was measured:
HEK293-hSLC43A3 cells = experiment: MTT cell viability assay, HEK293-hSLC43A3; type: cell-based, human
Experimental: (§1) Transfected-HEK293, MOLT-4, and L1210 cells were seeded into 24-well plates at a density of 1.1x10^5 cells per well in complete culture medium. […] Medium containing no cells was used to determine spontaneous MTT reduction (background). In transfected-HEK293 cells, media was removed via a vacuum-powered aspirator and replaced with 150 μL of Dulbecco’s phosphate buffered saline (DPBS—137 mM NaCl, 2.7 mM KCl, 6.3 mM Na2HPO4, 1.5 mM KH2PO4, 0.5 mM MgCl2, 0.9 mM CaCl2, pH 7.4) containing MTT (1 mg/mL) for 90 minutes at 37°C. In MOLT-4 and L1210, cell suspension was transferred to 1.5 mL microcentrifuge tubes and centrifuged for 10 minutes at 3000 rcf. Following centrifugation, media was removed via gentle pipetting and replaced with 150 μL of DPBS containing MTT (1 mg/mL) for 90 minutes at 37°C. Microcentrifuge tubes were centrifuged again for 15 minutes at 23,500 rcf, and then DPBS containing MTT was removed via a vacuum-powered aspirator. The resultant formazan crystals were solubilized in 500 μL of DMSO and transferred to a 96-well plate in 200 μL duplicates. Absorbance was measured at 570 nm, in a SpectraMax® i3x Multi-Mode Detection Platform (Molecular Devices, San Jose, CA). After background subtraction, % cell viability was calculated as the ratio of absorbance in the presence of test compound to that measured with vehicle alone (X 100).

MOLT-4 cells = experiment: MTT cell viability assay, MOLT-4; type: cell-based, human; conditions: for EC50: Homo sapiens, MOLT-4, 48 h, read-out: first-phase EC50 cell viability
Experimental: as §1

`Sc1ncnc2nc[nH]c12` [6-MP, 6-Mercaptopurine] was tested, and the “shift in EC50 (increased sensitivity) relative to HEK293-EV cells” value (HEK293-hSLC43A3 cells; HEK293-hSLC43A3 vs HEK293-EV) was 19 fold, the EC50 (HEK293-hSLC43A3 cells; Homo sapiens, HEK293-hSLC43A3, 48 h, MTT, first-phase EC50 where biphasic) was 990 ± 90 nM and the EC50 (MOLT-4 cells; MTT, biphasic curve (Fig 10A)) was 700 ± 200 nM. The EC50 (MOLT-4 cells; in absence of DY, solvent DMSO present) was 500 ± 100 nM and the “increase in 6-MP sensitivity on co-treatment with DY” value (MOLT-4 cells; MOLT-4, 6-MP + DY vs 6-MP + solvent) was 2 fold.
